# In paper PMC5218480 (PLoS ONE, 2017):
# Test system: MV-4-11 cells
# Assay: Gene expression microarray analysis (Affymetrix PrimeView) and GSEA
# Assay type: cell-based, human
# Parameters: RFU PODN (11730768_x_at) / Fold change /veh PODN (11730768_x_at) / RFU LINC00158 (11744669_a_at) / Fold change /veh LINC00158 (11744669_a_at) / RFU DUSP10 (11751237_a_at) / Fold change /veh DUSP10 (11751237_a_at) / RFU ID3 (11757404_x_at) / Fold change /veh ID3 (11757404_x_at) / RFU PLEKHG5 (11737974_s_at) / Fold change /veh PLEKHG5 (11737974_s_at) / RFU LRRC4B (11730491_at) / Fold change /veh LRRC4B (11730491_at) / RFU GIMAP4 (11747438_a_at) / Fold change /veh GIMAP4 (11747438_a_at) / RFU KRT8 (11758183_x_at) / Fold change /veh KRT8 (11758183_x_at) / RFU CNN1 (11734310_a_at) / Fold change /veh CNN1 (11734310_a_at) / RFU VPS37D (11726825_at) / Fold change /veh VPS37D (11726825_at) / RFU C10orf10 (11716522_x_at) / Fold change /veh C10orf10 (11716522_x_at) / RFU KIR2DL2 /// KIR2DL4 /// KIR2DL5A /// KIR2DL5B /// KIR2DS1 /// KIR2DS2 /// KIR2DS3 /// KIR2DS4 /// KIR3DL3 /// KIR3DL3 /// KIR3DS1 (11738374_at) / Fold change /veh KIR2DL2 /// KIR2DL4 /// KIR2DL5A /// KIR2DL5B /// KIR2DS1 /// KIR2DS2 /// KIR2DS3 /// KIR2DS4 /// KIR3DL3 /// KIR3DL3 /// KIR3DS1 (11738374_at) / RFU C1QL1 (11718748_at) / Fold change /veh C1QL1 (11718748_at) / RFU TMPRSS4 (11747572_a_at) / Fold change /veh TMPRSS4 (11747572_a_at) / RFU HAMP (11756126_x_at) / Fold change /veh HAMP (11756126_x_at) / RFU RNFT2 (11725882_a_at) / Fold change /veh RNFT2 (11725882_a_at) / RFU NR4A2 (11747474_a_at) / Fold change /veh NR4A2 (11747474_a_at) / RFU ABCC12 (11746883_a_at) / Fold change /veh ABCC12 (11746883_a_at) / RFU TMEM136 (11760407_x_at) / Fold change /veh TMEM136 (11760407_x_at) / RFU CLDN22 /// WWC2 (11732394_at) / Fold change /veh CLDN22 /// WWC2 (11732394_at) / RFU HLA-DPB1 (11760878_x_at) / Fold change /veh HLA-DPB1 (11760878_x_at) / RFU SPINT1 (11716480_a_at) / Fold change /veh SPINT1 (11716480_a_at) / RFU GAP43 (11754022_s_at) / Fold change /veh GAP43 (11754022_s_at) / RFU A4GNT (11735810_at) / Fold change /veh A4GNT (11735810_at) / RFU PRB3 (11715151_x_at) / Fold change /veh PRB3 (11715151_x_at) / RFU TUBB4B (11761932_at) / Fold change /veh TUBB4B (11761932_at) / RFU CAPN14 (11732068_a_at) / Fold change /veh CAPN14 (11732068_a_at) / RFU TMCC2 (11721928_a_at) / Fold change /veh TMCC2 (11721928_a_at) / RFU IRGQ (11745062_a_at) / Fold change /veh IRGQ (11745062_a_at) / RFU FAM174B (11720279_a_at) / Fold change /veh FAM174B (11720279_a_at) / RFU TMPRSS4 (11748680_a_at) / Fold change /veh TMPRSS4 (11748680_a_at) / RFU FAM212B (11763350_a_at) / Fold change /veh FAM212B (11763350_a_at) / RFU PLEKHG5 (11743358_a_at) / Fold change /veh PLEKHG5 (11743358_a_at) / RFU ZSCAN30 (11745921_a_at) / Fold change /veh ZSCAN30 (11745921_a_at) / RFU CMKLR1 (11741424_a_at) / Fold change /veh CMKLR1 (11741424_a_at) / RFU LOC101060620 /// MAPK8IP1 (11723275_at) / Fold change /veh LOC101060620 /// MAPK8IP1 (11723275_at) / RFU SPTSSB (11747773_x_at) / Fold change /veh SPTSSB (11747773_x_at) / RFU PRSS12 (11739890_at) / Fold change /veh PRSS12 (11739890_at) / RFU BIN1 (11741810_x_at) / Fold change /veh BIN1 (11741810_x_at) / RFU WNT11 (11732464_a_at) / Fold change /veh WNT11 (11732464_a_at) / RFU C10orf10 (11716521_a_at) / Fold change /veh C10orf10 (11716521_a_at) / RFU C5orf56 (11738089_at) / Fold change /veh C5orf56 (11738089_at) / RFU CYB561 (11721691_x_at) / Fold change /veh CYB561 (11721691_x_at) / RFU ANKRD19P (11752326_a_at) / Fold change /veh ANKRD19P (11752326_a_at) / RFU OR2T12 /// OR2T33 /// OR2T8 (11738714_s_at) / Fold change /veh OR2T12 /// OR2T33 /// OR2T8 (11738714_s_at) / RFU VCAN (11748164_a_at) / Fold change /veh VCAN (11748164_a_at) / RFU JSRP1 (11732532_at) / Fold change /veh JSRP1 (11732532_at) / RFU KRTAP10-11 (11738290_x_at) / Fold change /veh KRTAP10-11 (11738290_x_at) / RFU MYO3A (11730013_a_at) / Fold change /veh MYO3A (11730013_a_at) / RFU EBF3 (11725865_a_at) / Fold change /veh EBF3 (11725865_a_at) / RFU CAMK2N1 (11719241_x_at) / Fold change /veh CAMK2N1 (11719241_x_at) / RFU C5orf56 (11738088_a_at) / Fold change /veh C5orf56 (11738088_a_at) / RFU OLFML3 (11715873_a_at) / Fold change /veh OLFML3 (11715873_a_at) / RFU LOC100653217 /// NTM (11731650_a_at) / Fold change /veh LOC100653217 /// NTM (11731650_a_at) / RFU MAPK11 (11762145_a_at) / Fold change /veh MAPK11 (11762145_a_at) / RFU FIZ1 (11724087_x_at) / Fold change /veh FIZ1 (11724087_x_at) / RFU OASL (11726364_x_at) / Fold change /veh OASL (11726364_x_at) / RFU SOX15 (11748057_x_at) / Fold change /veh SOX15 (11748057_x_at) / RFU CD79A (11719716_a_at) / Fold change /veh CD79A (11719716_a_at) / RFU HIST1H1D (11736915_at) / Fold change /veh HIST1H1D (11736915_at) / RFU CASKIN2 (11723855_a_at) / Fold change /veh CASKIN2 (11723855_a_at) / RFU LOC730098 (11760151_x_at) / Fold change /veh LOC730098 (11760151_x_at) / RFU OR4N2 (11742367_at) / Fold change /veh OR4N2 (11742367_at) / RFU PRRT2 (11749266_a_at) / Fold change /veh PRRT2 (11749266_a_at) / RFU SNX32 (11753110_a_at) / Fold change /veh SNX32 (11753110_a_at) / RFU CDHR5 (11726645_a_at) / Fold change /veh CDHR5 (11726645_a_at) / RFU RCAN1 (11760418_a_at) / Fold change /veh RCAN1 (11760418_a_at) / RFU FAM167A (11723789_a_at) / Fold change /veh FAM167A (11723789_a_at) / RFU FAM26E (11764081_at) / Fold change /veh FAM26E (11764081_at) / RFU ISYNA1 (11749810_s_at) / Fold change /veh ISYNA1 (11749810_s_at) / RFU ACY1 (11761880_at) / Fold change /veh ACY1 (11761880_at) / RFU 11764098_at / Fold change /veh 11764098_at / RFU SAMD14 (11745864_x_at) / Fold change /veh SAMD14 (11745864_x_at) / RFU NPB (11741838_a_at) / Fold change /veh NPB (11741838_a_at) / RFU TMPRSS6 (11731388_a_at) / Fold change /veh TMPRSS6 (11731388_a_at) / RFU KRTAP10-2 (11738614_at) / Fold change /veh KRTAP10-2 (11738614_at) / RFU ARHGAP8 /// PRR5-ARHGAP8 (11727945_x_at) / Fold change /veh ARHGAP8 /// PRR5-ARHGAP8 (11727945_x_at) / RFU KRTAP5-7 /// NADSYN1 (11734609_at) / Fold change /veh KRTAP5-7 /// NADSYN1 (11734609_at) / RFU RASL12 (11751679_a_at) / Fold change /veh RASL12 (11751679_a_at) / RFU CDKN2B (11736163_a_at) / Fold change /veh CDKN2B (11736163_a_at) / RFU PRF1 (11729649_at) / Fold change /veh PRF1 (11729649_at) / RFU, ZNF638 /// ZNF638-IT1 / Fold change vs veh, ZNF638 /// ZNF638-IT1 / RFU, PANK3 / Fold change vs veh, PANK3 / RFU, SH3YL1 / Fold change vs veh, SH3YL1 / RFU, ZEB2 / Fold change vs veh, ZEB2 / RFU, NRIP1 / Fold change vs veh, NRIP1 / RFU, PTTG1IP / Fold change vs veh, PTTG1IP / RFU, CAPN2 / Fold change vs veh, CAPN2 / RFU, MED14 / Fold change vs veh, MED14 / RFU, SNORA58 / Fold change vs veh, SNORA58 / RFU, C1orf63 / Fold change vs veh, C1orf63 / RFU, LRRFIP1 / Fold change vs veh, LRRFIP1 / RFU, NDUFAF7 / Fold change vs veh, NDUFAF7 / RFU, SLC12A2 / Fold change vs veh, SLC12A2 / RFU, IBTK / Fold change vs veh, IBTK / RFU, ESF1 / Fold change vs veh, ESF1 / Fold change vs veh, TMEM50B / RFU, TAOK1 / Fold change vs veh, TAOK1 / RFU, ACBD3 / Fold change vs veh, ACBD3 / RFU, TMA16 / Fold change vs veh, TMA16 / RFU, RWDD3 / Fold change vs veh, RWDD3 / RFU, BCAT1 / Fold change vs veh, BCAT1 / RFU, EDEM3 / Fold change vs veh, EDEM3 / RFU, TMEM33 / Fold change vs veh, TMEM33 / RFU, WDR75 / Fold change vs veh, WDR75 / RFU, AHCTF1 / Fold change vs veh, AHCTF1 / RFU, TFRC / Fold change vs veh, TFRC / RFU, ZDHHC17 / Fold change vs veh, ZDHHC17 / RFU, NOM1 / Fold change vs veh, NOM1 / RFU, ARL8B / Fold change vs veh, ARL8B / RFU, ZBTB11 / Fold change vs veh, ZBTB11 / RFU, TAMM41 / Fold change vs veh, TAMM41 / RFU, KIAA1704 /// LOC100996395 / Fold change vs veh, KIAA1704 /// LOC100996395 / RFU, ING1 / Fold change vs veh, ING1 / RFU, TRMT61B / Fold change vs veh, TRMT61B / RFU, FUBP3 / Fold change vs veh, FUBP3 / RFU, TP53 / Fold change vs veh, TP53 / RFU, TNKS2 / Fold change vs veh, TNKS2 / RFU, ZFP14 / Fold change vs veh, ZFP14 / RFU, ACTR2 / Fold change vs veh, ACTR2 / RFU, PPP3R1 / Fold change vs veh, PPP3R1 / RFU, PIK3R1 / Fold change vs veh, PIK3R1 / RFU, HNRNPA1 / Fold change vs veh, HNRNPA1 / RFU, RNF170 / Fold change vs veh, RNF170 / RFU, ZNF28 / Fold change vs veh, ZNF28 / RFU, RNGTT / Fold change vs veh, RNGTT / RFU, OGT / Fold change vs veh, OGT / RFU, BRD1 / Fold change vs veh, BRD1 / RFU, MARS / Fold change vs veh, MARS / RFU, ZNF655 / Fold change vs veh, ZNF655 / RFU, FAHD1 / Fold change vs veh, FAHD1 / RFU, BDP1 / Fold change vs veh, BDP1 / RFU, LRRCC1 / Fold change vs veh, LRRCC1 / RFU, ARID1A / Fold change vs veh, ARID1A / RFU, ZNF146 / Fold change vs veh, ZNF146 / RFU, ZNF330 / Fold change vs veh, ZNF330 / RFU, GPN3 / Fold change vs veh, GPN3 / RFU, C9orf123 / Fold change vs veh, C9orf123 / RFU, N4BP2L2 / Fold change vs veh, N4BP2L2 / RFU, ARFIP1 / Fold change vs veh, ARFIP1 / RFU, FAM179B / Fold change vs veh, FAM179B / RFU, BCL10 / Fold change vs veh, BCL10 / RFU, UHRF1BP1L / Fold change vs veh, UHRF1BP1L / RFU, BET1 / Fold change vs veh, BET1 / RFU, CNOT2 / Fold change vs veh, CNOT2 / RFU, ZNF268 / Fold change vs veh, ZNF268 / Fold change vs veh, ZNF507 / RFU, DGCR2 / Fold change vs veh, DGCR2 / RFU, WDSUB1 / Fold change vs veh, WDSUB1 / Fold change vs veh, HSP90B1 /// MIR3652 / RFU, ADSS / Fold change vs veh, ADSS / RFU, GK / Fold change vs veh, GK / RFU, ZNF148 / Fold change vs veh, ZNF148 / RFU, TAF9 / Fold change vs veh, TAF9 / RFU, SLC1A5 / Fold change vs veh, SLC1A5 / RFU, SLMO2 / Fold change vs veh, SLMO2 / RFU, ABCC4 / Fold change vs veh, ABCC4 / RFU, LOC101060439 /// RAP1B / Fold change vs veh, LOC101060439 /// RAP1B / RFU, RFX7 / Fold change vs veh, RFX7 / RFU, GTPBP10 / Fold change vs veh, GTPBP10 / RFU, CNEP1R1 / Fold change vs veh, CNEP1R1 / RFU, BIVM-ERCC5 /// ERCC5 / Fold change vs veh, BIVM-ERCC5 /// ERCC5 / RFU, ILF3 / Fold change vs veh, ILF3 / RFU 11762660_at / Fold change /veh 11762660_at / RFU VCAN (11757783_s_at) / Fold change /veh VCAN (11757783_s_at) / RFU DDX43 (11728927_at) / Fold change /veh DDX43 (11728927_at) / RFU KRT8 (11758188_x_at) / Fold change /veh KRT8 (11758188_x_at) / RFU NKD1 (11759106_at) / Fold change /veh NKD1 (11759106_at) / RFU SRD5A1 (11742802_a_at) / Fold change /veh SRD5A1 (11742802_a_at) / RFU TPSAB1 /// TPSB2 (11721975_s_at) / Fold change /veh TPSAB1 /// TPSB2 (11721975_s_at) / RFU GSTM3 (11746129_a_at) / Fold change /veh GSTM3 (11746129_a_at) / RFU IL23R (11737362_x_at) / Fold change /veh IL23R (11737362_x_at) / RFU TMEM51 (11727254_a_at) / Fold change /veh TMEM51 (11727254_a_at) / RFU PIWIL2 (11732686_x_at) / Fold change /veh PIWIL2 (11732686_x_at) / RFU ORM1 (11744905_x_at) / Fold change /veh ORM1 (11744905_x_at) / RFU CCDC152 (11743942_at) / Fold change /veh CCDC152 (11743942_at) / RFU ECM1 (11717891_a_at) / Fold change /veh ECM1 (11717891_a_at) / RFU IL23R (11748794_a_at) / Fold change /veh IL23R (11748794_a_at) / RFU TNFAIP8L3 (11732012_x_at) / Fold change /veh TNFAIP8L3 (11732012_x_at) / RFU MBOAT4 (11741988_at) / Fold change /veh MBOAT4 (11741988_at) / RFU 11764193_at / Fold change /veh 11764193_at / RFU TMEM53 (11763286_at) / Fold change /veh TMEM53 (11763286_at) / RFU MAGEB2 (11727129_at) / Fold change /veh MAGEB2 (11727129_at) / RFU TMEM200A (11744735_a_at) / Fold change /veh TMEM200A (11744735_a_at) / RFU CCDC152 (11751479_a_at) / Fold change /veh CCDC152 (11751479_a_at) / RFU FAM211A (11726209_a_at) / Fold change /veh FAM211A (11726209_a_at) / RFU RGS16 (11746705_a_at) / Fold change /veh RGS16 (11746705_a_at) / RFU VCAN (11755009_s_at) / Fold change /veh VCAN (11755009_s_at) / RFU RHOB (11743442_s_at) / Fold change /veh RHOB (11743442_s_at) / RFU RGS16 (11720943_a_at) / Fold change /veh RGS16 (11720943_a_at) / RFU RGS16 (11720944_at) / Fold change /veh RGS16 (11720944_at) / RFU, VPS4B / Fold change vs veh, VPS4B / RFU, CREB1 / Fold change vs veh, CREB1 / RFU, DNAJC13 / Fold change vs veh, DNAJC13 / RFU, GNAQ / Fold change vs veh, GNAQ / RFU, CDK5R1 / Fold change vs veh, CDK5R1 / RFU, ZRANB3 / Fold change vs veh, ZRANB3 / RFU, CUL4A / Fold change vs veh, CUL4A / RFU, CCNY / Fold change vs veh, CCNY / RFU, UFL1 / Fold change vs veh, UFL1 / RFU, COG3 / Fold change vs veh, COG3 / RFU, DIAPH2 / Fold change vs veh, DIAPH2 / RFU, SKA2 / Fold change vs veh, SKA2 / RFU, AFF3 / Fold change vs veh, AFF3 / RFU, LMF1 / Fold change vs veh, LMF1 / RFU, IPO11 / Fold change vs veh, IPO11 / RFU, DFFB / Fold change vs veh, DFFB / RFU, FOXP1 / Fold change vs veh, FOXP1 / RFU, CARD8 / Fold change vs veh, CARD8 / RFU, STRN3 / Fold change vs veh, STRN3 / RFU, ADK / Fold change vs veh, ADK / RFU, RASSF2 / Fold change vs veh, RASSF2 / RFU, WIPF1 / Fold change vs veh, WIPF1 / RFU, LARP1B / Fold change vs veh, LARP1B / RFU, RASA1 / Fold change vs veh, RASA1 / RFU, RB1 / Fold change vs veh, RB1 / RFU, PPFIA1 / Fold change vs veh, PPFIA1 / RFU, MAT2A / Fold change vs veh, MAT2A / RFU, CCT5 / Fold change vs veh, CCT5 / RFU, WDR92 / Fold change vs veh, WDR92 / RFU, CUX1 / Fold change vs veh, CUX1 / RFU, TTC7A / Fold change vs veh, TTC7A / RFU, TMEM135 / Fold change vs veh, TMEM135 / RFU, DEPTOR / Fold change vs veh, DEPTOR / RFU, CPM / Fold change vs veh, CPM / RFU, DNAJB6 / Fold change vs veh, DNAJB6 / RFU, CACNA2D3 / Fold change vs veh, CACNA2D3 / RFU, DTX4 / Fold change vs veh, DTX4 / RFU, TFCP2 / Fold change vs veh, TFCP2 / RFU, GMCL1 /// GMCL1P1 / Fold change vs veh, GMCL1 /// GMCL1P1 / RFU, AEBP2 / Fold change vs veh, AEBP2 / RFU, SNHG1 /// SNORD22 /// SNORD25 /// SNORD26 /// SNORD27 /// SNORD28 /// SNORD29 /// SNORD31 / Fold change vs veh, SNHG1 /// SNORD22 /// SNORD25 /// SNORD26 /// SNORD27 /// SNORD28 /// SNORD29 /// SNORD31 / Fold change (Aza/veh), C12orf56 (ProbeSet 11735607_a_at) / Fold change (ACY-1035/veh), C12orf56 (ProbeSet 11735607_a_at) / Fold change (Aza/veh), FGFR1OP (ProbeSet 11751329_s_at) / Fold change (ACY-1035/veh), FGFR1OP (ProbeSet 11751329_s_at) / Fold change (Aza/veh), VPS36 (ProbeSet 11739960_a_at) / Fold change (ACY-1035/veh), VPS36 (ProbeSet 11739960_a_at) / RFU SYPL1 (11715823_x_at) / Fold change /veh SYPL1 (11715823_x_at) / RFU IGFBP7 (11715501_s_at) / Fold change /veh IGFBP7 (11715501_s_at) / RFU REEP3 (11722064_at) / Fold change /veh REEP3 (11722064_at) / RFU IGLL1 (11728026_x_at) / Fold change /veh IGLL1 (11728026_x_at): dose or concentration left out as unconfirmed
# Conditions: MV-4-11 cells, 48 hours
structure (smiles),measurement,value
Nc1ncn([C@@H]2O[C@H](CO)[C@@H](O)[C@H]2O)c(=O)n1 [azacitidine],RFU KRT8 (11758188_x_at),23.78 RFU
